Activity and IC50 data for 8 molecules are collected here from ChEMBL document CHEMBL4392867, “Asperunguisins A-F, Cytotoxic Asperane Sesterterpenoids from the Endolichenic Fungus Aspergillus unguis” (J Nat Prod, 2019).

Structures can show the parent of a compound that is named as a salt. Active and inactive are the calls of the source. The calls are words filed in the database; no cut-off is given here.

In assay [1] the test system is HT-29. Put plainly: Cytotoxicity in human HT-29 cells assessed as reduction in cell viability at 40 uM incubated for 48 hrs by MTT assay. In kind it is functional, cell-based.
Assay [2] relates to A549. Put plainly: Cytotoxicity in human A549 cells assessed as reduction in cell viability at 40 uM incubated for 48 hrs by MTT assay. It is filed as functional, cell-based.
The test system of assay [3] is U-251. Briefly: Cytotoxicity in human U251 cells assessed as reduction in cell viability at 40 uM incubated for 48 hrs by MTT assay. In kind it is functional, cell-based.
For assay [4], the system named is U-87 MG. Briefly: Cytotoxicity in human U87 cells assessed as reduction in cell viability at 40 uM incubated for 48 hrs by MTT assay. In kind it is functional, cell-based. To be noted: U-87MG ATCC.
Assay [5] relates to SMMC-7721. Put plainly: Cytotoxicity in human SMMC7721 cells assessed as reduction in cell viability at 40 uM incubated for 48 hrs by MTT assay. It is filed as functional, cell-based.
Assay [6] deals with HepG2. Put plainly: Cytotoxicity in human HepG2 cells assessed as reduction in cell viability at 40 uM incubated for 48 hrs by MTT assay. In kind it is functional, cell-based.
Assay [7] has as its system U-251. Briefly: Cytotoxicity in human U251 cells assessed as reduction in cell viability incubated for 48 hrs by MTT assay. As to conditions: U-251, 48 h. In kind it is functional, cell-based.
Assay [8] deals with U-87 MG. Briefly: Cytotoxicity in human U87 cells assessed as reduction in cell viability incubated for 48 hrs by MTT assay. In kind it is functional, cell-based, U-87MG ATCC.
Assay [9] has as its system HT-29. Put plainly: Cytotoxicity in human HT-29 cells assessed as reduction in cell viability incubated for 48 hrs by MTT assay. In kind it is functional, cell-based. As to conditions: HT-29, 48 h.
For assay [10], the system named is A549. Put plainly: Cytotoxicity in human A549 cells assessed as reduction in cell viability incubated for 48 hrs by MTT assay. As to conditions: A549, 48 h. In kind it is functional, cell-based.
Assay [11] concerns SMMC-7721. Briefly: Cytotoxicity in human SMMC7721 cells assessed as reduction in cell viability incubated for 48 hrs by MTT assay. It is filed as functional, cell-based. As to conditions: SMMC-7721, 48 h.
The test system of assay [12] is HepG2. Put plainly: Cytotoxicity in human HepG2 cells assessed as reduction in cell viability incubated for 48 hrs by MTT assay. In kind it is functional, cell-based. As to conditions: HepG2, 48 h.
The test system of assay [13] is A549. Briefly: Induction of cell cycle arrest in human A549 cells assessed as accumulation at G1 phase incubated for 24 hrs by propidium iodide staining based flow cytometry. It is filed as functional.
Assay [14] relates to A549. Briefly: Induction of cell cycle arrest in human A549 cells assessed as accumulation at G1 phase at 10 uM incubated for 24 hrs by propidium iodide staining based flow cytometry (reference value: 66.99%). It is filed as functional.
Assay [15] concerns A549. Briefly: Induction of cell cycle arrest in human A549 cells assessed as accumulation at G2 phase at 10 uM incubated for 24 hrs by propidium iodide staining based flow cytometry (reference value: 13.54%). It is filed as functional.
Assay [16] deals with A549. Put plainly: Induction of cell cycle arrest in human A549 cells assessed as accumulation at S phase at 10 uM incubated for 24 hrs by propidium iodide staining based flow cytometry (reference value: 19.47%). In kind it is functional.
In assay [17] the test system is A549. Briefly: Induction of cell cycle arrest in human A549 cells assessed as accumulation at G1 phase at 15 uM incubated for 24 hrs by propidium iodide staining based flow cytometry (reference value: 66.99%). It is filed as functional.
In assay [18] the test system is A549. Briefly: Induction of cell cycle arrest in human A549 cells assessed as accumulation at G2 phase at 15 uM incubated for 24 hrs by propidium iodide staining based flow cytometry (reference value: 13.54%). It is filed as functional.
Assay [19] deals with A549. Put plainly: Induction of cell cycle arrest in human A549 cells assessed as accumulation at S phase at 15 uM incubated for 24 hrs by propidium iodide staining based flow cytometry (reference value: 19.47%). In kind it is functional.
Assay [20] concerns A549. Briefly: Induction of cell cycle arrest in human A549 cells assessed as accumulation at G1 phase at 20 uM incubated for 24 hrs by propidium iodide staining based flow cytometry (reference value: 66.99%). In kind it is functional.
Assay [21] has as its system A549. Briefly: Induction of cell cycle arrest in human A549 cells assessed as accumulation at G2 phase at 20 uM incubated for 24 hrs by propidium iodide staining based flow cytometry (reference value: 13.54%). It is filed as functional.
Assay [22] concerns A549. Put plainly: Induction of cell cycle arrest in human A549 cells assessed as accumulation at S phase at 20 uM incubated for 24 hrs by propidium iodide staining based flow cytometry (reference value: 19.47%). In kind it is functional.
For assay [23], the system named is A549. Briefly: Induction of apoptosis in human A549 cells assessed as early apoptotic cells level at 10 uM incubated for 24 hrs by Annexin V-FITC and propidium iodide staining based flow cytometry (reference value: 1.81%). It is filed as functional.
Assay [24] relates to A549. Put plainly: Induction of apoptosis in human A549 cells assessed as late apoptotic cells level at 10 uM incubated for 24 hrs by Annexin V-FITC and propidium iodide staining based flow cytometry (reference value: 4.14%). It is filed as functional.
Assay [25] concerns A549. Put plainly: Induction of apoptosis in human A549 cells assessed as necrotic cells level at 10 uM incubated for 24 hrs by Annexin V-FITC and propidium iodide staining based flow cytometry (reference value: 3.23%). In kind it is functional.
The subject of assay [26] is A549. Briefly: Induction of apoptosis in human A549 cells assessed as early apoptotic cells level at 15 uM incubated for 24 hrs by Annexin V-FITC and propidium iodide staining based flow cytometry (reference value: 1.81%). In kind it is functional.
Assay [27] concerns A549. Put plainly: Induction of apoptosis in human A549 cells assessed as late apoptotic cells level at 15 uM incubated for 24 hrs by Annexin V-FITC and propidium iodide staining based flow cytometry (reference value: 4.14%). In kind it is functional.
Assay [28] relates to A549. Briefly: Induction of apoptosis in human A549 cells assessed as necrotic cells level at 15 uM incubated for 24 hrs by Annexin V-FITC and propidium iodide staining based flow cytometry (reference value: 3.23%). It is filed as functional.
Assay [29] relates to A549. Briefly: Induction of apoptosis in human A549 cells assessed as early apoptotic cells level at 20 uM incubated for 24 hrs by Annexin V-FITC and propidium iodide staining based flow cytometry (reference value: 1.81%). In kind it is functional.
The test system of assay [30] is A549. Briefly: Induction of apoptosis in human A549 cells assessed as late apoptotic cells level at 20 uM incubated for 24 hrs by Annexin V-FITC and propidium iodide staining based flow cytometry (reference value: 4.14%). It is filed as functional.
Assay [31] relates to A549. Put plainly: Induction of apoptosis in human A549 cells assessed as necrotic cells level at 20 uM incubated for 24 hrs by Annexin V-FITC and propidium iodide staining based flow cytometry (reference value: 3.23%). It is filed as functional.
For assay [32], the system named is A549. Put plainly: Cytotoxicity in human A549 cells assessed as reduction in cell viability incubated for 48 hrs in presence of pan-caspase inhibitor Z-VAD-fmk by MTT assay. In kind it is functional, cell-based.
The test system of assay [33] is A549. Briefly: Induction of DNA damage in human A549 cells assessed as increase in expression of gamma-H2AX protein expression by Western blot analysis. In kind it is functional, cell-based.

`CC(C)[C@@H]1CC[C@]2(C)C1=CC[C@]1(C)[C@H]3CC[C@]4(C)O[C@@H]4[C@@H](O)[C@]3(C)[C@@H](O)C[C@H]12`: the outcome in the assay on HT-29 [1], in the assay with A549 [2], with U-251 [3], in the assay with U-87 MG [4], in the assay on SMMC-7721 [5] and with HepG2 [6] was inactive.
For the molecule `COc1cccc2c1C(=O)c1c(O)c3c(c(O)c1C2=O)C[C@@](O)(C(=O)CO)C[C@@H]3O[C@H]1C[C@H](N)[C@H](O)[C@H](C)O1` [DOXORUBICIN HYDROCHLORIDE], the 50% inhibitory concentration (IC50) is 2.9 µM in the assay on U-251 [7] and 1.1 µM with U-87 MG [8].
Take `CC1=C[C@@H](O)[C@@]2(C)[C@H](CC1)[C@@]1(C)CC=C3[C@H](C(C)C)CC[C@@]3(C)[C@@H]1C[C@@H]2O`: the IC50 is 24.2 µM in the assay with HT-29 [9]; over 40 µM in the assay on A549 [10]; over 40 µM in the assay on U-251 [7]; over 40 µM with U-87 MG [8]; over 40 µM in the assay on SMMC-7721 [11]; over 40 µM in the assay with HepG2 [12].
Regarding `CC(C)[C@@H]1CC[C@]2(C)C1=CC[C@]1(C)[C@H]3CC[C@@]4(C)O[C@H]([C@H]4O)[C@]3(C)[C@@H](O)C[C@H]12`, the IC50 in the assay on HT-29 [9] turned out to be 14.6 µM; in the assay on A549 [10], 6.2 µM; with U-251 [7], 12.6 µM; with U-87 MG [8], 16.4 µM; in the assay on SMMC-7721 [11], 15.2 µM; with HepG2 [12] it was 20.1 µM. Also, the Activity entry with A549 [13] was “Dose-dependent effect”; in the assay on A549 [14] it was 76.4%; with A549 [15] it was 7.51%; with A549 [16], 16.1%; in the assay on A549 [17], 83.33%; in the assay on A549 [18], 5.06%. In addition, the Activity in the assay on A549 [19] turned out to be 11.62%; in the assay with A549 [20], 85.86%; with A549 [21], 3.76%; in the assay on A549 [22] it was 10.38%; with A549 [23], 2.17%; in the assay with A549 [24] it was 3.93%. The Activity in the assay with A549 [25] came out at 3.23%; in the assay with A549 [26], 2.43%; in the assay with A549 [27] it was 6.05%; in the assay with A549 [28], 3.79%; in the assay with A549 [29], 16.83%; in the assay on A549 [30], 20.57%. The Activity in the assay on A549 [31] was 3.3%; with A549 [33] it was “Dose-dependent effect”. Moreover, the outcome with A549 [32] was inactive.
As for `C=C1CC[C@@H]2[C@@]3(C)CC=C4[C@H](C(C)C)CC[C@@]4(C)[C@@H]3C[C@H](O)[C@@]2(C)[C@@H]2O[C@@H](c3ccc(O)cc3)O[C@@H]12`, the IC50 in the assay on HT-29 [9] was over 40 µM; in the assay with A549 [10] it was over 40 µM; in the assay on U-251 [7] it was over 40 µM; in the assay with U-87 MG [8], over 40 µM; in the assay on SMMC-7721 [11], 25.4 µM; in the assay on HepG2 [12] it was over 40 µM.
In the case of `CC(C)[C@@H]1CC[C@]2(C)C1=CC[C@]1(C)[C@H]3CC[C@]4(C)O[C@@H]4C(=O)[C@]3(C)[C@@H](O)C[C@H]12`, the outcome in the assay on HT-29 [1], in the assay on A549 [2], with U-251 [3], in the assay on U-87 MG [4], with SMMC-7721 [5] and with HepG2 [6] was inactive.
For `CC(C)[C@@H]1CC[C@]2(C)C1=CC[C@]1(C)[C@H]3CC[C@](C)(O)[C@H](O)[C@@H](O)[C@]3(C)[C@@H](O)C[C@H]12`, the outcome in the assay on HT-29 [1], with A549 [2], with U-251 [3], with U-87 MG [4], with SMMC-7721 [5] and in the assay on HepG2 [6] was inactive.
On to `C=C1CC[C@@H]2[C@@]3(C)CC=C4[C@H](C(C)C)CC[C@@]4(C)[C@@H]3C[C@H](O)[C@@]2(C)[C@H](O)[C@H]1O`, for which the IC50 with HT-29 [9] is over 40 µM; with A549 [10] it was 16.3 µM; with U-251 [7], over 40 µM; in the assay on U-87 MG [8] it was over 40 µM; in the assay with SMMC-7721 [11], over 40 µM; in the assay on HepG2 [12] it was 8.2 µM.
